Results from PMC10215143, “D- and N-Methyl Amino Acids for Modulating the Therapeutic Properties of Antimicrobial Peptides and Lipopeptides” (Antibiotics, 2023).
Converted amounts (≈) assume the structure as drawn. “And” between values parts separate entries of the source, which are not always exact repeats. Identical values can stand only once. Like-named read-outs stand apart in the source and are kept apart here. Where a SMILES comes first, the peptide text is derived from it. [ ]: non-standard residue; d: D form. The star is where a group is joined. NMeF = CN[C@@H](Cc1ccccc1)C(=O)O; NMeK = CN[C@@H](CCCCN)C(=O)O; Decanoyl = CCCCCCCCCC(=O)*

How the values were obtained:
C. tropicalis DBFIQ 3 = type: cell-based, Candida tropicalis; details: DBFIQ 3, 24 h
Experimental: (§1) Each inoculum was taken and the cellular concentration was adjusted to 2 × 10^3 CFU/mL in Sabouraud Dextrose Broth (SDB) (Biokar Diagnostics, Cedex, France). Next, 50 µL of these inocula was added to 50 µL of peptide solution in serial 2-fold dilutions. […] […] The test was conducted in triplicate.

Gram (+) bacteria = details: for MIC Average Bacteria Gram (+): average over Gram (+) strains; for TI Bacteria Gram (+), HC50/MIC average: first value of the cell, a single value holds for HC50 and IC50 (400 µM used); for TI Bacteria Gram (+), IC50/MIC average: second value of the cell, HeLa IC50 based
Experimental: (§2) The MIC against bacterial strains was determined by the modified broth microtiter dilution method, following the procedures proposed by R.E.W. Hancock Laboratory for testing antimicrobial peptides. The target strains Escherichia coli ATCC 35218, Pseudomonas aeruginosa ATCC 27853, Enterococcus faecalis ATCC 29212, and Staphylococcus aureus ATCC 25923 belong to the American Type Culture Collection (ATCC). The Methicillin-Resistant Staphylococcus aureus BSF FBCB1313 strain (MRSA) was provided by the Clinical Bacteriology Section of FBCB-UNL. All strains were activated by culture for 24 h at 37 °C in Mueller-Hinton Broth (MHB) (Biokar Diagnostics, Cedex, France). Each inoculum was taken and adjusted to a cellular concentration of 5 × 10^5 colony-forming units (CFU)/mL in diluted MHB. All the peptides were dissolved in bovine serum albumin buffer with the addition of 0.01% acetic acid; 100 µL of each inoculum was added to 11 µL of peptide solution in serial 2-fold dilutions and were incubated for 18–24 h at 37 °C. The MIC was the lowest peptide concentration that inhibited visible growth of each bacterial strain. The test was conducted in triplicate.
(§3) The TI is defined as the relationship between the concentration that caused 50% of hemolysis (HC50) or a 50% reduction in HeLa cell viability and the MIC. Thus, higher TI values indicate greater antimicrobial specificity. […] The average MIC for each peptide against different microorganism groups was used to calculate the TI value.

Gram (−) bacteria = details: for MIC Average Bacteria Gram (−): average over Gram (−) strains; for TI Bacteria Gram (−), HC50/MIC average: first value of the cell, a single value holds for HC50 and IC50 (400 µM used); for TI Bacteria Gram (−), IC50/MIC average: second value of the cell, HeLa IC50 based
Experimental: as §2, §3

E. coli ATCC 35218 = type: cell-based, Escherichia coli; details: ATCC 35218, 24 h
Experimental: (§4) The test was conducted in triplicate.

[1] = Critical micelle concentration by conductimetry in Milli-Q water; type: physicochemical; details: 25 °C
Experimental: On the other hand, acylation confers that the peptide has capacity to self-assemble into nanostructures, resulting in a surfactant-like structure, which may affect the extent of peptide insertion and disruption of bacterial membrane integrity. In this work, the CMC of the lipopeptides was determined by conductimetry in Milli-Q water. All the lipopeptides adopted a micellar assembly with CMC values ranging from 2.0 to 5.7 mM (Table 1). […] This effect appeared to be more important when substitution by an N-methyl amino acid was performed on amino acids located on the non-polar face of the amphipathic helix (CMC values of C10:0-A2(8-NMePhe) = 2.01 mM). For all the lipopeptides, the CMC values remained above the MIC values, which could indicate that these molecules interact with the cell membrane as monomers and, consequently, that this property would not be necessary for antimicrobial activity. This notion is in concordance with reports in the literature on short cationic lipopeptides.
A lipopeptide solution was prepared in Milli Q water, and the specific conductivity of each lipopeptide solution, in a concentration ranging from 0.06 to 18 mg/mL, was measured using a drop conductivity meter (HORIBA, Kyoto, Japan), at 25 °C. Conductivity values were plotted vs. lipopeptide concentration (mS × cm^−1 vs. mg/mL), and the CMC was graphically determined.

[2] = tested on: S. aureus RM * SA1 (Methicillin-resistant Staphylococcus aureus); details: S. aureus RM * SA1 (MRSA)
Human erythrocytes = experiment: Hemolysis assay; type: cell-based; details: human erythrocytes 0.4% (v/v), 37 °C, 60 min, 6.25 to 400 µM
Experimental: Hemolytic activity was determined using red blood cells and the hemoglobin released was measured at 405 nm. The percentage of hemolysis corresponding to the synthetic compounds is shown in Figure 1 while the HC50 values are provided in Table 3. […] Substitutions by N-methyl and D-amino acids reduced the hemolytic activity of the peptides and lipopeptides. […] For all the peptides and most of the lipopeptides, the HC50 values exceeded 400 μM. Indeed, the HC50 values were lower only for C10:0-A2(9-NMeLys) and C10:0-A2, which were around 300 and 200 μM, respectively.
Erythrocyte lysis was determined using the following previously optimized protocols. Human erythrocytes from a healthy voluntary donor were isolated by centrifugation (3000 rpm for 10 min) after washing three times with Physiological Solution (PS). Erythrocyte solutions were prepared at a concentration of 0.4% (v/v) in PS. Test tubes containing 200 µL of erythrocyte solution were incubated at 37 °C for 60 min with 200 µL of peptide solution at concentrations ranging from 6.25 to 400 µM. After centrifugation at 3000 rpm for 5 min, supernatant absorbance was measured at 405 nm. Lysis induced by 1% Triton X-100 was taken as a 100% reference value.

HeLa cells = details: 24 h
Experimental: We assessed the cytotoxicity of the compounds synthesized using HeLa cells.
The 3–4,5-dimethylthiazol-2,5-biphenyl tetrazolium bromide (MTT) cell viability assay was used to assess the cytotoxic activity of synthetic compounds against the human HeLa line. HeLa cells were seeded in 96-well plates at 1 × 10^5 cells/well, in which the peptide solution was added at different concentrations (3.125–400 μM) for 24 h of incubation. Next, MTT reagent (Sigma-Aldrich, St. Louis, MO, USA) was added, and the cells were incubated for 2 h. Then, 100 μL of dimethylsulfoxide (DMSO) was added to each well to dissolve formazan crystals, and the plates were read at 595 nm.

C. albicans PEEC 2 = type: cell-based, Candida albicans; details: PEEC 2, 24 h
Experimental: as §1

E. faecalis ATCC 29212 = type: cell-based, Enterococcus faecalis; details: ATCC 29212, 24 h
Experimental: as §4

Yeast = details: for MIC Average Yeast: 24 h; for TI Yeast, HC50/MIC average: first value of the cell, a single value holds for HC50 and IC50 (400 µM used); for TI Yeast, IC50/MIC average: second value of the cell, HeLa IC50 based
Experimental: Each inoculum was taken and the cellular concentration was adjusted to 2 × 10^3 CFU/mL in Sabouraud Dextrose Broth (SDB) (Biokar Diagnostics, Cedex, France). Next, 50 µL of these inocula was added to 50 µL of peptide solution in serial 2-fold dilutions. […] The MIC was considered the lowest peptide concentration that inhibited visible growth of each yeast strain. The test was conducted in triplicate.
as §3

P. aeruginosa ATCC 27853 = type: cell-based, Pseudomonas aeruginosa; details: ATCC 27853, 24 h
Experimental: as §4

S. aureus ATCC 25923 = type: cell-based, Staphylococcus aureus; details: ATCC 25923, 24 h
Experimental: as §4

SMILES | MIC (C. tropicalis DBFIQ 3) [µM] | MIC Average Bacteria Gram (+) (Gram (+) bacteria) [µM] | TI Bacteria Gram (+), HC50/MIC average (Gram (+) bacteria) | MIC Average Bacteria Gram (−) (Gram (−) bacteria) [µM] | TI Bacteria Gram (−), HC50/MIC average (Gram (−) bacteria) | MIC (E. coli ATCC 35218) [µM] | CMC [1] [mM] | MIC [2] [µM] | HC50 ± SD (Human erythrocytes) [µM] | IC50 (HeLa cells) [µM] | MIC (C. albicans PEEC 2) [µM] | MIC (E. faecalis ATCC 29212) [µM] | MIC Average Yeast (Yeast) [µM] | TI Yeast, HC50/MIC average (Yeast) | MIC (P. aeruginosa ATCC 27853) [µM] | MIC (S. aureus ATCC 25923) [µM] | TI Bacteria Gram (+), IC50/MIC average (Gram (+) bacteria) | TI Bacteria Gram (−), IC50/MIC average (Gram (−) bacteria) | TI Yeast, IC50/MIC average (Yeast) | IC50 (HeLa cells; read-out: IC50 ± SD, HeLa cells, MTT, 3.125–400 μM)
CCCCCCCCCC(=O)N[C@H](C(=O)N[C@@H](CCCCN)C(=O)N[C@@H](CCC(N)=O)C(=O)N[C@H](C(=O)N(C)[C@@H](CCCCN)C(=O)N[C@@H](CCCCN)C(=O)N[C@@H](CC(C)C)C(=O)N[C@@H](Cc1ccccc1)C(=O)N[C@@H](CCCCN)C(=O)N[C@@H](CCCCN)C(N)=O)C(C)C)[C@@H](C)CC [C10:0-A2(5-NMeLys), C10:0-IKQV(NMe-K)KLFKK-NH2] (Decanoyl-IKQV[NMeK]KLFKK-NH2) | 179.5 (≈ 256 µg/mL) | 6.5 (≈ 9.28 µg/mL) | 61.5 | 4.2 (≈ 5.99 µg/mL) | 95.2 | 2.8 (≈ 4 µg/mL) | 3.73 | 5.6 (≈ 7.99 µg/mL) | >400 | > 400 | 179.5 (≈ 256 µg/mL) | 11.2 (≈ 16 µg/mL) | 179.5 (≈ 256 µg/mL) | 2.2 | 5.6 (≈ 7.99 µg/mL) | 2.8 (≈ 4 µg/mL) | – | – | – | –
CCCCCCCCCC(=O)N[C@H](C(=O)N[C@@H](CCCCN)C(=O)N[C@@H](CCC(N)=O)C(=O)N[C@H](C(=O)N[C@@H](CCCCN)C(=O)N(C)[C@@H](CCCCN)C(=O)N[C@@H](CC(C)C)C(=O)N[C@@H](Cc1ccccc1)C(=O)N[C@@H](CCCCN)C(=O)N[C@@H](CCCCN)C(N)=O)C(C)C)[C@@H](C)CC [C10:0-A2(6-NMeLys), C10:0-IKQVK(NMe-K)LFKK-NH2] (Decanoyl-IKQVK[NMeK]LFKK-NH2) | 89.7 (≈ 128 µg/mL) | 4.2 (≈ 5.99 µg/mL) | 95.2 | 1.1 (≈ 1.57 µg/mL) | 363.6 | 1.4 (≈ 2 µg/mL) | 3.63 | 5.6 (≈ 7.99 µg/mL) | >400 | 400 ± 29 | 44.9 (≈ 64.1 µg/mL) | 5.6 (≈ 7.99 µg/mL) | 67.3 (≈ 96 µg/mL) | 5.9 | 0.7 (≈ 0.999 µg/mL) | 1.4 (≈ 2 µg/mL) | – | – | – | –
CCCCCCCCCC(=O)N[C@H](C(=O)N[C@@H](CCCCN)C(=O)N[C@@H](CCC(N)=O)C(=O)N[C@H](C(=O)N[C@@H](CCCCN)C(=O)N[C@@H](CCCCN)C(=O)N[C@@H](CC(C)C)C(=O)N(C)[C@@H](Cc1ccccc1)C(=O)N[C@@H](CCCCN)C(=O)N[C@@H](CCCCN)C(N)=O)C(C)C)[C@@H](C)CC [C10:0-A2(8-NMePhe), C10:0-IKQVKKL(NMe-F)KK-NH2] (Decanoyl-IKQVKKL[NMeF]KK-NH2) | 179.5 (≈ 256 µg/mL) | 6.5 (≈ 9.28 µg/mL) | 61.5 | 8.4 (≈ 12 µg/mL) | 47.6 | 11.2 (≈ 16 µg/mL) | 2.01 | 5.6 (≈ 7.99 µg/mL) | >400 | > 400 | 179.5 (≈ 256 µg/mL) | 11.2 (≈ 16 µg/mL) | 179.5 (≈ 256 µg/mL) | 2.2 | 5.6 (≈ 7.99 µg/mL) | 2.8 (≈ 4 µg/mL) | – | – | – | –
CCCCCCCCCC(=O)N[C@H](C(=O)N[C@@H](CCCCN)C(=O)N[C@@H](CCC(N)=O)C(=O)N[C@H](C(=O)N[C@@H](CCCCN)C(=O)N[C@@H](CCCCN)C(=O)N[C@@H](CC(C)C)C(=O)N[C@@H](Cc1ccccc1)C(=O)N(C)[C@@H](CCCCN)C(=O)N[C@@H](CCCCN)C(N)=O)C(C)C)[C@@H](C)CC [C10:0-A2(9-NMeLys), C10:0-IKQVKKLF(NMe-K)K-NH2] (Decanoyl-IKQVKKLF[NMeK]K-NH2) | 179.5 (≈ 256 µg/mL) | 3.7 (≈ 5.28 µg/mL) | 80.7 | 1.8 (≈ 2.57 µg/mL) | 165.8 | 2.8 (≈ 4 µg/mL) | 3.90 | 2.8 (≈ 4 µg/mL) | – | > 400 | 89.7 (≈ 128 µg/mL) | 5.6 (≈ 7.99 µg/mL) | 134.6 (≈ 192 µg/mL) | 2.2 | 0.7 (≈ 0.999 µg/mL) | 2.8 (≈ 4 µg/mL) | 108.1 | 222.2 | 3.0 | –
CC(C)C[C@H](NC(=O)[C@H](CCCCN)NC(=O)[C@H](CCCCN)NC(=O)[C@H](Cc1ccccc1)N(C)C(=O)[C@H](CC(C)C)NC(=O)[C@H](CCCCN)NC(=O)[C@H](CCCCN)NC(=O)[C@H](Cc1ccccc1)N(C)C(=O)[C@H](CC(C)C)NC(=O)[C@@H](N)CCCCN)C(=O)N[C@@H](Cc1ccccc1)C(=O)N[C@@H](CCCCN)C(N)=O [TA4(3,7-NMePhe), KL(NMeF)KKL(NMeF)KKLFK-NH2] (H-KL[NMeF]KKL[NMeF]KKLFK-NH2; N-terminus assumed) | 80.2 (≈ 128 µg/mL) | – | 14.1 | 3.1 (≈ 4.94 µg/mL) | 129.0 | 5.0 (≈ 7.98 µg/mL) | – | 10.0 (≈ 16 µg/mL) | >400 | 86.6 ± 7.35 | 80.2 (≈ 128 µg/mL) | 40.0 (≈ 63.8 µg/mL) | 80.2 (≈ 128 µg/mL) | 5.0 | 1.2 (≈ 1.91 µg/mL) | 5.0 (≈ 7.98 µg/mL) | 3.1 | 27.9 | 1.1 | ~86 µM and 86 µM
